Measurements taken from patent publication US6156789A, “Method for treating abnormal cell proliferation in the brain” (Rhone-Poulenc Rorer S.A., priority 1998, dated 2000).
Values joined by “and” are separate entries in the source; they are usually repeats but may differ in a detail not shown here. Identical values can stand only once. Like-named read-outs stand apart in the source and are kept apart here.

Test: Tissue distribution of Compound A in mice with mammary C/16 adenocarcinomas (first method: liver, heart, kidney, lung, spleen, tumor)
Assay type: in vivo, C3H/HeN female mice
Design: key to Percentage of Compound A (of dose) in Liver / Percentage of Compound A (of dose) in Heart / Percentage of Compound A (of dose) in Kidney / Percentage of Compound A (of dose) in Lung / Percentage of Compound A (of dose) in Spleen / Percentage of Compound A (of dose) in Tumor: --: not detected
Settings: for Kp at 0.5 h: 0.50 h
Procedure: Mammary C/16 adenocarcinomas were implanted in C3H/HeN female mice. At least 7 days later, 4α,10β-diacetoxy-2α-benzoyloxy-5β,20-epoxy-1β-hydroxy-7β,8β-methylene-9-oxo-19-nor-11-taxen-13α-yl (2R,3S)-3-tert-butoxycarbonylamino-2-hydroxy-3-phenylpropionate ("Compound A") was administered to groups of female mice at doses of 9.5, 15.4, 24.8, 40 or 60.5 mg/kg by intravenous injection under 0.4 or 0.5 ml/injection over 15 seconds. The body weight and date of implantation were recorded for each mouse. Blood and tissue samples were taken 2, 5, 15, 30 and 45 minutes and 1, 4, 14, 24 and 48 hours, after administration. The plasma was separated from the blood samples at 4° C. and frozen immediately. The tissue and tumors were weighed and frozen immediately (-20° C.).
The plasma and tissue samples were then analyzed for the concentration of Compound A. The plasma was assayed by high pressure liquid chromatography with spectrophotometric detection. For the tissue, liver, heart, kidney, lung, spleen and tumor tissue, samples were assayed by a first method, while a second method was used for the brain tissue analyzed. In the first method, 0.2 g of tissue was combined with 2 ml of sodium phosphate buffer 0.1 M (pH:7) and homogenized. The homogenate was centrifuged and 0.5 ml of supernatant was injected into the chromatographic column. In the second method, 10 μl of standard solution was combined with 0.2 g of brain tissue. 2 ml of methanol/5% perchloric acid (50/50) were added and the mixture was homogenized. The homogenate was centrifuged and 100 μl of supernatant was injected into the chromatographic column.

[1] = 0.033 h, 40 μg/kg [sic], mice with tumors, single mice, 40 mg/kg, 1.98 min
[2] = mouse, heart/plasma, iv, 40 mg/kg, mice with tumors, single mice, read-out: Tissue/Plasma Ratio, HEART
[3] = mouse, kidney/plasma, iv, 40 mg/kg, 40 μg/kg [sic], mice with tumors, single mice, read-out: Tissue/Plasma Ratio, KIDNEY

SMILES: CC(=O)O[C@H]1C(=O)[C@]23C[C@H]2C[C@H]2OC[C@@]2(OC(C)=O)[C@H]3[C@H](OC(=O)c2ccccc2)[C@]2(O)C[C@H](OC(=O)[C@H](O)[C@@H](NC(=O)OC(C)(C)C)c3ccccc3)C(C)=C1C2(C)C [Compound A, 4α,10β-diacetoxy-2α-benzoyloxy-5β,20-epoxy-1β-hydroxy-7β,8β-methylene-9-oxo-19-nor-11-taxen-13α-yl (2R,3S)-3-tert-butoxycarbonylamino-2-hydroxy-3-phenylpropionate]
- distribution in tissues sampled (40 mg/kg i.v.): quickly distributed in all tissues sampled
- percentage (concentration) in sampled tissue over time (40 mg/kg i.v., first few hours, except tumor and brain tissue): fell off rapidly over the first few hours following drug administration, except in the tumor and brain tissue
- uptake of the drug (40 mg/kg i.v., mice with mammary carcinoma): fast uptake of the drug
- drug present at 0.033 h cleared in one hour (40 mg/kg i.v., rapid phase, except tumor and brain tissue): 70%
- Tissue/Plasma Ratio, KIDNEY [1]: 1.25 and 1.20
- Tissue/Plasma Ratio, LIVER [1]: 0.91
- Tissue/Plasma Ratio, SPLEEN [1]: 0.42 and 0.43 and 0.41
- Percentage of Compound A (of dose) in Heart (0.033 h, 40 mg/kg): 0.46%
- Percentage of Compound A (of dose) in Kidney (0.033 h, 40 mg/kg): 2.06%
- Percentage of Compound A (of dose) in Liver (0.033 h, 40 mg/kg): 9.73%
- Percentage of Compound A (of dose) in Lung (0.033 h, 40 mg/kg): 0.67%
- Percentage of Compound A (of dose) in Spleen (0.033 h, 40 mg/kg): 0.27%
- Percentage of Compound A (of dose) in Tumor (0.033 h, 40 mg/kg): 1.07%
- Percentage of Compound A (of dose) in tissues, Total (0.033 h, 40 mg/kg): 14.45%
- Tissue/Plasma Ratio, LUNG (0.083 h, 40 μg/kg [sic], mice with tumors, single mice, 40 mg/kg, 4.98 min): 0.69
- Percentage of Compound A (of dose) in Heart (1 h, 40 mg/kg): 0.08%
- Percentage of Compound A (of dose) in Kidney (1 h, 40 mg/kg): 0.56%
- Percentage of Compound A (of dose) in Liver (1 h, 40 mg/kg): 2.10%
- Percentage of Compound A (of dose) in Lung (1 h, 40 mg/kg): 0.18%
- Percentage of Compound A (of dose) in Spleen (1 h, 40 mg/kg): 0.10%
- Percentage of Compound A (of dose) in Tumor (1 h, 40 mg/kg): 0.94%
- Percentage of Compound A (of dose) in tissues, Total (1 h, 40 mg/kg): 4.37%
- Percentage of Compound A (of dose) in Heart (4 h, 40 mg/kg): 0.03%
- Percentage of Compound A (of dose) in Kidney (4 h, 40 mg/kg): 0.23%
- Percentage of Compound A (of dose) in Liver (4 h, 40 mg/kg): 0.47%
- Percentage of Compound A (of dose) in Lung (4 h, 40 mg/kg): 0.08%
- Percentage of Compound A (of dose) in Spleen (4 h, 40 mg/kg): 0.05%
- Percentage of Compound A (of dose) in Tumor (4 h, 40 mg/kg): 0.37%
- Percentage of Compound A (of dose) in tissues, Total (4 h, 40 mg/kg): 1.62%
- Percentage of Compound A (of dose) in Heart (24 h, 40 mg/kg): --
- Percentage of Compound A (of dose) in Kidney (24 h, 40 mg/kg): --
- Percentage of Compound A (of dose) in Liver (24 h, 40 mg/kg): --
- Percentage of Compound A (of dose) in Lung (24 h, 40 mg/kg): --
- Percentage of Compound A (of dose) in Spleen (24 h, 40 mg/kg): --
- Percentage of Compound A (of dose) in Tumor (24 h, 40 mg/kg): 0.09%
- Percentage of Compound A (of dose) in tissues, Total (24 h, 40 mg/kg): 0.42%
- Percentage of Compound A (of dose) in Heart (48 h, 40 mg/kg): --
- Percentage of Compound A (of dose) in Kidney (48 h, 40 mg/kg): --
- Percentage of Compound A (of dose) in Liver (48 h, 40 mg/kg): --
- Percentage of Compound A (of dose) in Lung (48 h, 40 mg/kg): --
- Percentage of Compound A (of dose) in Spleen (48 h, 40 mg/kg): --
- Percentage of Compound A (of dose) in Tumor (48 h, 40 mg/kg): --
- Percentage of Compound A (of dose) in tissues, Total (48 h, 40 mg/kg): 0.19%
- AUC 0-4 Hours, Heart (dose = 40 mg/kg): 24.8 µg·h/g
- AUC 0-4 Hours, Kidney (dose = 40 mg/kg): 74.4 µg·h/g
- AUC 0-4 Hours, Liver (dose = 40 mg/kg): 70.8 µg·h/g
- AUC 0-4 Hours, Lung (dose = 40 mg/kg): 34.3 µg·h/g
- AUC 0-4 Hours, Spleen (dose = 40 mg/kg): 34.6 µg·h/g
- AUC 0-4 Hours, Tumor (dose = 40 mg/kg): 35.6 µg·h/g
- AUC 0 to Infinity, Heart (dose = 40 mg/kg): 28 µg·h/g
- AUC 0 to Infinity, Kidney (dose = 40 mg/kg): 121 µg·h/g
- AUC 0 to Infinity, Liver (dose = 40 mg/kg): 93 µg·h/g
- AUC 0 to Infinity, Lung (dose = 40 mg/kg): 52 µg·h/g
- AUC 0 to Infinity, Spleen (dose = 40 mg/kg): 80 µg·h/g
- AUC 0 to Infinity, Tumor (dose = 40 mg/kg): 107 µg·h/g
- half-life (mouse, heart, iv, 40 mg/kg, read-out: t 1/2, Heart (converted)): 96 min
- Tmax (mouse, heart, iv, 40 mg/kg i.v., read-out: time of maximum concentration, heart): 1.98 min
- Kp at 0.033 h (mouse, heart/plasma, iv, 40 mg/kg, 0.033 h, mice with tumors, single mice, read-out: Tissue/Plasma Ratio, HEART): 0.45
- Kp at 0.083 h (mouse, heart/plasma, iv, 40 mg/kg, 0.083 h, mice with tumors, single mice, read-out: Tissue/Plasma Ratio, HEART): 0.98
- Kp at 0.25 h [2]: 0.65
- Kp at 0.5 h [2]: 0.88
- Kp at 0.75 h [2]: 0.87
- Kp at 1 h (mouse, heart/plasma, iv, 40 mg/kg, 1 h, mice with tumors, single mice, read-out: Tissue/Plasma Ratio, HEART): 0.77
- half-life (mouse, kidney, iv, 40 mg/kg, 40 mg/kg i.v., read-out: half-life of the distribution phase, kidney (converted)): 3 min
- half-life (mouse, kidney, iv, 40 mg/kg, read-out: t 1/2, Kidney (converted)): 162 min
- Tmax (mouse, kidney, iv, 40 mg/kg i.v., read-out: time of maximum concentration, kidney): 1.98 min
- Kp at 0.033 h (mouse, kidney/plasma, iv, 40 mg/kg, 0.033 h, 40 μg/kg [sic], mice with tumors, single mice, read-out: Tissue/Plasma Ratio, KIDNEY): 1.7
- Kp at 0.083 h (mouse, kidney/plasma, iv, 40 mg/kg, 0.083 h, 40 μg/kg [sic], mice with tumors, single mice, read-out: Tissue/Plasma Ratio, KIDNEY): 2.4
- Kp at 0.25 h [3]: 1.35
- Kp at 0.5 h [3]: 1.88
- Kp at 0.75 h [3]: 2.44
